Reference: US12653805B2, “Targeting LASP1, eIF4A1, eIF4B and CXC4 with modulators and combinations thereof for cancer therapy” (The University of Toledo, priority 2019, dated 2026)
pIC50: −log10 of the molar value.

How the values were obtained:
MDA-MB-231 cells = details: cited from earlier work
[1] = test system: LASP1-eIF4A/eIF4B association in 231S cells; test: Co-immunoprecipitation of LASP1 with eIF4A/eIF4B; assay type: cell-based, human
Protocol: Subconfluent 231S cells were serum-starved for 1 hour and stimulated with 10-20 nM CXCL12 (PeptroTech, Rocky Hill, N.J., Cat. No. 300-28A) over different time points. […] Total protein in the clarified lysate was quantified using a Bradford protein assay (Bio-Rad, Hercules, Calif., Cat. No. 5000006). 1 mg of total protein lysate was employed in all immunoprecipitation reactions. eIF4B was immunoprecipitated by using 2 μg of eIF4B antibody (Cell Signaling Technology, Danvers, Mass., Cat. No. 13088). Mouse (G3A1) mAb IgG1 Isotype Control (Cell Signaling Technology, Danvers, Mass., Cat. No. 5415) served as the mock control. Next, eIF4A was immunoprecipitated using 2 μg of eIF4A1 antibody (Cohesion Biosciences, London, Purley, Cat. No. CQA1180). His-Tag (D3L10) XP® Rabbit mAb (Cell Signaling Technology, Danvers, Mass., Cat. No. 12698) was employed for the mock condition. Finally, in the reciprocal Co-IP, LASP1 was immunoprecipitated by using 2 μg LASP1 antibody (Biolegend, San Diego, Calif., Cat. No. 909301). As in the eIF4B Co-IP, mouse (G3A1) IgG1 isotype mAb was employed as the mock control. […] Proteins of interest were analyzed by sodium dodecyl sulfate-polyacrylamide gel electrophoresis (SDS-PAGE) and Western blotting.

[2] = test system: CXCR4 signaling in 231S cells; test: Western blotting of phosphorylation of eIF4B, PDCD4, 4E-BP1 after CXCR4 activation; assay type: cell-based, human
Protocol: (§1) Cell lysates were prepared and quantified as described. Western blots were incubated with the following 1° Abs: Cyclin D1 (Cell Signaling Technology, Danvers, Mass., Cat. No. 2922), eIF4A C32B4 (Cell Signaling Technology, Danvers, Mass., Cat. No. 2013), eIF4B 1F5 (Cell Signaling Technology, Danvers, Mass., Cat. No. 13088), p-eIF4B S422 (Thermo Scientific, Rockford, Ill., Cat No. PA5-38362), eIF4E C46H6 (Cell Signaling Technology, Danvers, Mass., Cat. No. 2067), eIF4G C45A4 (Cell Signaling Technology, Danvers, Mass., Cat. No. 2469), GST 26H1 (Cell Signaling Technology, Danvers, Mass., Cat. No. 2624), LASP1 8C6 (Biolegend, San Diego, Calif., Cat. No. 909301), MDM2 SMP14 (Santa Cruz Biotechnology, Dallas, Tex., Cat. No. sc-965), PDCD4 D29C6 (Cell Signaling Technology, Danvers, Mass., Cat. No. 9535), p-PDCD4 S67 (Sigma-Aldrich, St. Louis, Mo., Cat. No. P0072), ROCK1 C8F7 (Cell Signaling Technology, Danvers, Mass., Cat. No. 4035), survivin 71G4B7 (Cell Signaling Technology, Danvers, Mass., Cat. No. 2808), 4E-BP1 53H11 (Cell Signaling Technology, Danvers, Mass., Cat. No. 9644), p-4E-BP1 Thr70 (Cell Signaling Technology, Danvers, Mass., Cat. No. 9455), and β-tubulin D66 (Sigma/Aldrich, St. Louis, Mo., Cat. No. T0198). Following primary incubation, Western blots were incubated with Goat anti-Mouse IgG (H+L) Superclonal™ Secondary Ab conjugated to HRP (Thermo Scientific, Rockford, Ill., Cat No. A28177) or Goat anti-Rabbit IgG (H+L) Superclonal™ Secondary Ab conjugated to HRP (Thermo Scientific, Rockford, Ill., Cat No. A27036). Finally, blots were developed with Amersham™ ECL™ Prime Western Blotting Detection Reagent (GE Healthcare Life Sciences, Pittsburgh, Pa., Cat. No. RPN2232) and HyBlot ES™ Autoradiography Film (Denville Scientific, Swedesboro, N.J., Cat. No. E3212). Densitometry of the Western blots was performed using ImageJ. Calculation of fold change is given in the figure legend for each experiment.

231S LASP1 NS cells = test: Western blotting of eIF4A-dependent genes after CXCL12 stimulation; assay type: cell-based, human; details: control-silenced (LASP1 NS) 231S cells, 10-20 nM CXCL12
Protocol: as §1, with “Following primary incubation, Western blots were incubated with Goat anti-Mouse IgG (H+L) Superclonal™ Secondary Ab conjugated to HRP (Thermo Scientific, Rockford, Ill., Cat No. A28177) or Goat anti-Rabbit IgG (H+L) Superclonal™ Secondary Ab conjugated to HRP (Thermo Scientific, Rockford, Ill., Cat No. A27036). Finally, blots were developed with Amersham™ ECL™ Prime Western Blotting Detection Reagent (GE Healthcare Life Sciences, Pittsburgh, Pa., Cat. No. RPN2232) and HyBlot ES™ Autoradiography Film (Denville Scientific, Swedesboro, N.J., Cat. No. E3212). Densitometry of the Western blots was performed using ImageJ. Calculation of fold change is given in the figure legend for each experiment.” left out

[3] = test system: eIF4F complex in 231S cells; test: m7GTP pulldown assay (eIF4F complex); assay type: cell-based, human
Protocol: 231S cells were serum starved for 1 h and cells were stimulated (and prepared) as described in the co-immunoprecipitation section. 100 nM AMD3465 (CXCR4 antagonist, Sigma-Aldrich, St. Louis, Mo., Cat. No. SML1433-5MG) was incubated 30 min prior to stimulation. 1 mg of total protein lysate in 1 mL of Co-IP buffer was incubated with 25 μL of m7-GTP agarose beads overnight at 4° C. (Jena Biosciences, Jena, Germany, Cat. No. AC-155S). Following incubation, beads were washed with Co-IP buffer. Protein was eluted and analyzed by SDS-PAGE and Western blotting.

[4] = test system: LASP1-eIF4A interaction in 231S cells; test: Proximity ligation assay (PLA) of LASP1-eIF4A interaction; assay type: cell-based, human
Protocol: The Duolink In Situ Orange Fluorescent kit (Sigma/Aldrich, St. Louis, Mo., Cat. No. DUO92102-1KT) was employed to detect the endogenous interaction between LASP1 and eIF4A in situ in 231S cells. The PLA was performed according to the manufacturer's instructions using a rabbit eIF4A1 antibody (Cohesion Biosciences, London, Purley, Cat. No. CQA1180) and a mouse LASP1 antibody (Biolegend, San Diego, Calif., Cat. No. 909301). The single Ab control condition represents the PLA reaction with only the LASP1 antibody. In addition, cells were stained with phalloidin (Life Technologies, Carlsbad, Calif., Cat. No. A12379) and nuclei with DRAQ5 (Thermo Scientific, Rockford, Ill., Cat No. 62251). Cells were stimulated and inhibited as described. Moreover, cells were fixed, stained, and permeabilized with standard methods. The images were acquired by two-photon confocal microscopy and processed with Leica Application Suite X software (Leica, Wetzlar, Germany). Quantification of the interaction dots was performed using ImageJ.

Compound | pIC50 (MDA-MB-231 cells) | increase in association of LASP1 with eIF4B (reciprocal Co-IP) ([1]; 20 nM CXCL12, 0 min set to 1) [fold] | association of endogenous LASP1 and eIF4A1 (reciprocal Co-IP) ([1]; 20 nM CXCL12, 5 min, 0 min set to 1) [fold] | phosphorylation of PDCD4 (pS67) ([2]; CXCL12, 5 min) [fold] | phosphorylation of PDCD4 (pS67) ([2]; CXCL12, peak at 10 min) [fold] | protein levels of CCND1, BIRC5, Mdm2, and ROCK1 (231S LASP1 NS cells) | eIF4G-eIF4E interaction (eIF4G recruitment) ([3]; 20 nM CXCL12, 20 min) [fold] | association of endogenous LASP1 with eIF4E ([3]; 20 nM CXCL12, peak at 5 min) [fold] | eIF4G-eIF4E interaction (eIF4G recruitment) ([3]; 20 nM CXCL12, peak at 5 min) [fold] | stimulation of the interaction between LASP1 and eIF4A ([4]; CXCL12 5 min vs unstimulated) [fold] | LASP1-eIF4A interaction dots (interactions/cell) ([4]; CXCL12 incubation for 5 min (20 nM), unstimulated 11.6±6.5) [dots]
COC(=O)[C@H]1[C@@H](O)[C@@]2(O)c3c(OC)cc(O[C@@H]4O[C@@H]([C@H](O)CO)CO[C@H]4OC)cc3O[C@@]2(c2ccc(OC)cc2)[C@@H]1c1ccccc1 [Silvestrol] | 7.22 |  |  |  |  |  |  |  |  |  | 
CXCL12: ligand for CXCR4 (PeproTech), used to stimulate cells |  | 7.5 | 19.1 | 3.3 | 3.9 | considerable increases | 2.2 | 2.2 | 4.4 | 3 | 118±58.3
